# Key:
# [1] = system: healthy adult female subjects; experiment: Phase 1 single dose escalation, subcutaneous; vaginal photoplethysmography with visual sexual stimulation; assay type: in vivo, human
# Procedure: In a double-blind, placebo-controlled, single dose, dose escalation Phase 1 study to determine the maximum tolerated dose in healthy adult female subjects, doses of from 0.3 to 5.0 mg (0.3, 1.0, 3.0 and 5.0 mg) of bremelanotide were administered by subcutaneous injection. However, this study specifically excluded women with a diagnosis of FSD, and thus could not determine an effective dose for treatment of FSD. The study did employ a measure of pharmacodynamic effect, defined as an increase of sexual arousal response in the presence of visual sexual stimulation as measured by vaginal blood flow with vaginal photoplethysmography (using a Geer gauge device), which measures vaginal pulse amplitude.
# [2] = Example 1: adverse events and discontinuations during double-blind treatment; assay type: in vivo, human
# Procedure: A multi-centered, placebo-controlled, randomized, parallel group trial with fixed dose levels and designed to identify appropriate doses of bremelanotide administered by subcutaneous injection in premenopausal females with FSAD and/or HSDD, under the conditions of home use, was conducted. Subjects received a single dose of placebo (subject-blinded) in-clinic followed by 4 weeks of subject-blinded placebo treatment at home (subjects self-administered treatment as needed). Subjects who continued to qualify for the trial then received 2 single in-clinic doses of randomized treatment (double-blind; approximately one week apart), followed by 12 weeks of double-blind treatment at home (subjects self-administered treatment as needed).
# Randomization occurred immediately prior to the first in-clinic dose of double-blind treatment. Study drug and placebo was provided as pre-filled syringes in 0.3 mL volume, with subjects instructed on self-administration into the anterior thigh or abdomen.
# female rats = settings: cited from earlier work
# [3] = Intranasal 10 mg Phase 2 studies in women with FSAD: plasma concentration 30 minutes post dose; assay type: in vivo, human; settings: 10 mg intranasal
# Procedure: In the bremelanotide premenopausal arm, 42.5% of the subjects were discontinued due to hypertension, nausea, vomiting or myalgia. Subjects received a 10 mg intranasal dose of bremelanotide, with premenopausal subjects determined to have a mean plasma concentration of 88.5±51.9 ng/mL and a % CV of 58.6, and postmenopausal subjects determined to have a mean plasma concentration of 93.2±68.5 ng/mL and a % CV of 73.5. The minimum and maximum plasma concentration levels for all women at thirty minutes post dose range from 0.0 ng/mL to 207.0 ng/mL.
# In the intranasal study, premenopausal women self-administered a 10 mg intranasal dose.
# [4] = Adverse events with single-dose SC administration (Trials -14, -06, -10); assay type: in vivo, human
# Procedure: Subcutaneous dosing was tested in 5 Phase 1 trials (3 in females, 2 in males) and one Phase 2 trial (males). The most common adverse events associated with single-dose SC bremelanotide administration (Trials −14, −06, and −10) were somnolence (30%), flushing (15%), nausea (19%), and vomiting (10%).
# [5] = all women, thirty minutes post dose
structure (smiles),measurement,setting,value
"CCCC[C@H](NC(C)=O)C(=O)N[C@H]1CC(=O)NCCCC[C@@H](C(=O)O)NC(=O)[C@H](Cc2c[nH]c3ccccc23)NC(=O)[C@H](CCCNC(=N)N)NC(=O)[C@@H](Cc2ccccc2)NC(=O)[C@H](Cc2c[nH]cn2)NC1=O [bremelanotide, Ac-Nle-cyclo(-Asp-His-D-Phe-Arg-Trp-Lys)-OH]",pharmacodynamic effect (vaginal pulse amplitude),"[1]; 0.3 or 1.0 mg subcutaneous, compared to placebo or baseline",no apparent pharmacodynamic effect
same,pharmacodynamic effect (vaginal pulse amplitude),[1]; 3 and 5 mg subcutaneous,statistically significant pharmacodynamic effect
same,subcutaneous doses at which a pharmacodynamics effect was seen,[1]; normal female volunteers,≥ 3 mg
same,patients discontinued based on adverse events,[2]; 0.75 mg,2
same,patients discontinued based on preset blood pressure change criterion,[2]; 0.75 mg,4
same,"Any adverse event leading to withdrawal, number of subjects",[2]; 0.75 mg SC (N = 100),2
same,"Any adverse event leading to withdrawal, percent of subjects",[2]; 0.75 mg SC (N = 100),(2%)
same,"Any adverse event, number of subjects",[2]; 0.75 mg SC (N = 100),64
same,"Any adverse event, percent of subjects",[2]; 0.75 mg SC (N = 100),(64%)
same,"Flushing leading to withdrawal, number of subjects",[2]; 0.75 mg SC (N = 100),0
same,"Flushing, number of subjects",[2]; 0.75 mg SC (N = 100),17
same,"Flushing, percent of subjects",[2]; 0.75 mg SC (N = 100),(17%)
same,"Headache, number of subjects",[2]; 0.75 mg SC (N = 100),9
same,"Headache, percent of subjects",[2]; 0.75 mg SC (N = 100),(9%)
same,"Hypertension leading to withdrawal, number of subjects",[2]; 0.75 mg SC (N = 100),2
same,"Hypertension leading to withdrawal, percent of subjects",[2]; 0.75 mg SC (N = 100),(2%)
same,"Injection-site pain, number of subjects",[2]; 0.75 mg SC (N = 100),6
same,"Injection-site pain, percent of subjects",[2]; 0.75 mg SC (N = 100),(6%)
same,"Injection-site pruritus, number of subjects",[2]; 0.75 mg SC (N = 100),4
same,"Injection-site pruritus, percent of subjects",[2]; 0.75 mg SC (N = 100),(4%)
same,"Nausea leading to withdrawal, number of subjects",[2]; 0.75 mg SC (N = 100),0
same,"Nausea, number of subjects",[2]; 0.75 mg SC (N = 100),18
same,"Nausea, percent of subjects",[2]; 0.75 mg SC (N = 100),(18%)
same,"Upper respiratory tract infection, number of subjects",[2]; 0.75 mg SC (N = 100),8
same,"Upper respiratory tract infection, percent of subjects",[2]; 0.75 mg SC (N = 100),(8%)
same,"Vomiting leading to withdrawal, number of subjects",[2]; 0.75 mg SC (N = 100),0
same,patients discontinued based on adverse events,[2]; 1.25 mg,4
same,patients discontinued based on preset blood pressure change criterion,[2]; 1.25 mg,9
same,"Any adverse event leading to withdrawal, number of subjects",[2]; 1.25 mg SC (N = 99),4
same,"Any adverse event leading to withdrawal, percent of subjects",[2]; 1.25 mg SC (N = 99),(4%)
same,"Any adverse event, number of subjects",[2]; 1.25 mg SC (N = 99),61
same,"Any adverse event, percent of subjects",[2]; 1.25 mg SC (N = 99),(62%)
same,"Flushing leading to withdrawal, number of subjects",[2]; 1.25 mg SC (N = 99),1
same,"Flushing leading to withdrawal, percent of subjects",[2]; 1.25 mg SC (N = 99),(1%)
same,"Flushing, number of subjects",[2]; 1.25 mg SC (N = 99),14
same,"Flushing, percent of subjects",[2]; 1.25 mg SC (N = 99),(14%)
same,"Headache, number of subjects",[2]; 1.25 mg SC (N = 99),9
same,"Headache, percent of subjects",[2]; 1.25 mg SC (N = 99),(9%)
same,"Hypertension leading to withdrawal, number of subjects",[2]; 1.25 mg SC (N = 99),0
same,"Injection-site pain, number of subjects",[2]; 1.25 mg SC (N = 99),6
same,"Injection-site pain, percent of subjects",[2]; 1.25 mg SC (N = 99),(6%)
same,"Injection-site pruritus, number of subjects",[2]; 1.25 mg SC (N = 99),4
same,"Injection-site pruritus, percent of subjects",[2]; 1.25 mg SC (N = 99),(4%)
same,"Nausea leading to withdrawal, number of subjects",[2]; 1.25 mg SC (N = 99),0
same,"Nausea, number of subjects",[2]; 1.25 mg SC (N = 99),22
same,"Nausea, percent of subjects",[2]; 1.25 mg SC (N = 99),(22%)
same,"Upper respiratory tract infection, number of subjects",[2]; 1.25 mg SC (N = 99),5
same,"Upper respiratory tract infection, percent of subjects",[2]; 1.25 mg SC (N = 99),(5%)
same,"Vomiting leading to withdrawal, number of subjects",[2]; 1.25 mg SC (N = 99),1
same,"Vomiting leading to withdrawal, percent of subjects",[2]; 1.25 mg SC (N = 99),(1%)
same,patients discontinued based on adverse events,[2]; 1.75 mg,8
same,patients discontinued based on preset blood pressure change criterion,[2]; 1.75 mg,7
same,"Any adverse event leading to withdrawal, number of subjects",[2]; 1.75 mg SC (N = 98),8
same,"Any adverse event leading to withdrawal, percent of subjects",[2]; 1.75 mg SC (N = 98),(8%)
same,"Any adverse event, number of subjects",[2]; 1.75 mg SC (N = 98),67
same,"Any adverse event, percent of subjects",[2]; 1.75 mg SC (N = 98),(68%)
same,"Flushing leading to withdrawal, number of subjects",[2]; 1.75 mg SC (N = 98),1
same,"Flushing leading to withdrawal, percent of subjects",[2]; 1.75 mg SC (N = 98),(1%)
same,"Flushing, number of subjects",[2]; 1.75 mg SC (N = 98),17
same,"Flushing, percent of subjects",[2]; 1.75 mg SC (N = 98),(17%)
same,"Headache, number of subjects",[2]; 1.75 mg SC (N = 98),14
same,"Headache, percent of subjects",[2]; 1.75 mg SC (N = 98),(14%)
same,"Hypertension leading to withdrawal, number of subjects",[2]; 1.75 mg SC (N = 98),1
same,"Hypertension leading to withdrawal, percent of subjects",[2]; 1.75 mg SC (N = 98),(1%)
same,"Injection-site pain, number of subjects",[2]; 1.75 mg SC (N = 98),7
same,"Injection-site pain, percent of subjects",[2]; 1.75 mg SC (N = 98),(7%)
same,"Injection-site pruritus, number of subjects",[2]; 1.75 mg SC (N = 98),6
same,"Injection-site pruritus, percent of subjects",[2]; 1.75 mg SC (N = 98),(6%)
same,"Nausea leading to withdrawal, number of subjects",[2]; 1.75 mg SC (N = 98),3
same,"Nausea leading to withdrawal, percent of subjects",[2]; 1.75 mg SC (N = 98),(3%)
same,"Nausea, number of subjects",[2]; 1.75 mg SC (N = 98),24
same,"Nausea, percent of subjects",[2]; 1.75 mg SC (N = 98),(24%)
same,"Upper respiratory tract infection, number of subjects",[2]; 1.75 mg SC (N = 98),4
same,"Upper respiratory tract infection, percent of subjects",[2]; 1.75 mg SC (N = 98),(4%)
same,"Vomiting leading to withdrawal, number of subjects",[2]; 1.75 mg SC (N = 98),3
same,"Vomiting leading to withdrawal, percent of subjects",[2]; 1.75 mg SC (N = 98),(3%)
same,subjects discontinuing due to an adverse event,[2]; 1.75 mg subcutaneous dose,8%
same,tolerability during the trial,[2]; 0.75-1.75 mg SC,well-tolerated
same,serious adverse events considered related to treatment,[2]; of 7 serious adverse events,none
same,effect on sexual behavior,female rats,selective pharmacological effect on appetitive sexual behavior
same,Fos induction,female rats; subcutaneous injections,inducing the immediate-early gene product Fos in a variety of limbic and hypothalamic structures
same,dopamine release,female rats; subcutaneous injections,increasing dopamine release in the medial preoptic area
same,maximum plasma concentration level,[3]; [5],207.0 ng/mL
same,minimum plasma concentration level,[3]; [5],0.0 ng/mL
same,% CV of plasma concentration,[3]; postmenopausal subjects,73.5%
same,% CV of Cmax (plasma concentration),"[3]; premenopausal women, 30 minutes post dosing",58.6%
same,level at 0.5 h,"[3]; female, human, plasma, inhaled or intranasal, postmenopausal subjects",93.2 ± 68.5 ng/mL
same,flushing incidence,[4],15%
same,nausea incidence,[4],19%
same,somnolence incidence,[4],30%
same,vomiting incidence,[4],10%

# Reference: patent US10286034B2, “Uses of bremelanotide in therapy for female sexual dysfunction” (Palatin Technologies, Inc., priority 2012, dated 2019)
